Source: patent US6444706B2, “Guanidine derivatives, processes for preparing them and their use as pharmaceutical compositions” (priority 1996, dated 2002)

What was measured:
herpes virus = test: Virus replication in infected cell cultures, plaque assay of supernatant; assay type: cell-based; settings: Fibroblast, herpes-infected monkey kidney cells or human fibroblasts, 24 hours, read-out: IC50 (concentration at which virus replication is inhibited by 50%)
Procedure: The virostatic properties were determined by in vitro tests. The following virus strains were used:
Cell cultures (monkey kidney cells or human fibroblasts) are infected with herpes and a series of cultures are exposed to medium containing various concentrations of the test substance. After 24 hours the concentration of the virus descendants in the cell culture supernatant is determined by plaque assays.

[1] = tested on: endotoxin from E. coli (endotoxic shock); test: Protection from endotoxic shock by C11AG in mice; assay type: in vivo, mice (strain NMRI/Nu); settings: 50 mg/kg subcutaneously 30 minutes before 0.2 mg endotoxin i.p.; nine animals; all 10 controls died within 24 hours
Procedure: Mice (strain NMRI/Nu, 8 weeks old, female) were each given 0.2 mg of endotoxin from E. coli (Sigma, Munich) by intraperitoneal route. The 10 control animals, who had been given 0.2 ml of 5% glucose subcutaneously, died within 24 hours. Nine animals were injected subcutaneously with 50 mg/kg of C11AG 30 minutes before the endotoxin treatment. Of this group, only 2 animals died.

[2] = tested on: collagen-induced arthritis; test: Inhibition of collagen-induced arthritis in the mouse; assay type: in vivo, DBA/I mice; settings: for Total Symptoms: day 7 after booster injection, 10 animals
Procedure: An autoimmune reaction against cartilagenous tissue was produced by injecting collagen into DBA/I mice as described (Holmdahl, R. et al., Immunology, 65, 305-310, 1988). Groups of 10 animals were used as control or were given 50 mg/kg or 100 mg/kg of C11AG per day by oral route. The drug was administered in the food (Altromin, powdered food) and the dosage was calculated from the daily food intake. The symptoms were evaluated daily for each individual paw from 0.5-3 as described [R. Holmdahl, et al., Immunology, 65, 305-310, (1988)].
20 days after the booster injection the animals were killed and the joints were examined by histopathology resulting in the following picture: […]

[3] = target: T1, neutral SMase (membrane fraction isolated from mice brains) (Mus musculus, UniProt Q9JJY3); test: Inhibition of neutral SMase (14C sphingomyelin hydrolysis); assay type: biochemical; settings: 2 h, pH 7.5, read-out: nSMase activity
T1 construct: membrane fraction isolated from mice brains, 10 μg of protein/mixture [according to S. Gatt, Biochem. Biophys; Res. Commun; 68, 235-241 (1976)]
T1 sequence (Q9JJY3 1-655): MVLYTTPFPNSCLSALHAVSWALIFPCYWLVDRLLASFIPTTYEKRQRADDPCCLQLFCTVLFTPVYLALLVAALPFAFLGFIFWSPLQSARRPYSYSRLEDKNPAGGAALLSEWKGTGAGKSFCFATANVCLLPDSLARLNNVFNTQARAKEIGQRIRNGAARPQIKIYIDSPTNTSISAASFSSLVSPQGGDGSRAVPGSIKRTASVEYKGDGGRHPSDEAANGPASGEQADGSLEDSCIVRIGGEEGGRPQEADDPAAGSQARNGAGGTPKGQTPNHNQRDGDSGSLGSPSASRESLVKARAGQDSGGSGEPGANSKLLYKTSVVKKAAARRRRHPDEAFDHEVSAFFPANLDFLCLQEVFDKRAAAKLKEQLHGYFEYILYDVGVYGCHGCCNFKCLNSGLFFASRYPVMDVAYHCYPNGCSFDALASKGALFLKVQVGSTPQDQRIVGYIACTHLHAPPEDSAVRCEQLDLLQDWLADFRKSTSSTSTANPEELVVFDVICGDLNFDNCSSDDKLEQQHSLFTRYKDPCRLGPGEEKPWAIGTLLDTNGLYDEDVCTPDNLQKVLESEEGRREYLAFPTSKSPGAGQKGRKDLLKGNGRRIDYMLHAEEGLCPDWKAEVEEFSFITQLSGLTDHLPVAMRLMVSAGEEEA
Procedure: Then the samples were extracted with 5 times the volume of chloroform/methanol (1:1) and the content of radioactive phosphorylcholine in the aqueous phase was determined. The release of phosphorylcholine in the untreated mixtures corresponds to 100% enzyme activity.
The release of phosphorylcholine in the untreated batches corresponds to 100%.

[4] = tested on: RAW cells (mouse macrophage line); test: Inhibition of NO-synthase induction in macrophages (nitrite in culture medium); assay type: cell-based; settings: 10 ng/ml LPS, 16 hours, without C11AG 0.122
Procedure: RAW cells (mouse macrophage line, origin: American Type Culture Collection) were treated with 10 ng/ml of endotoxin from E. coli (LPS) in the presence of different concentrations of C11AG. After 16 hours the nitrite content in the culture medium was measured using the method described [K. Tschaikowsky, M. Meisner, F. Schonhuber and E. Rugheimer, Br. J. Pharmacol. 113 (3): 664-8 (1994)].
The inhibition of NO-synthase induction is graphically shown in FIG. 3; the NO2 concentration [OD measured at 540 nm] is plotted against the C11AG concentration [μg/ml] for 10 ng/ml of LPS.

[5] = tested on: acidic SMase (microsome fraction from macrophage); test: Inhibition of acidic SMase (14C sphingomyelin hydrolysis); assay type: biochemical; settings: pH 5.6, untreated = 100%
Procedure: ^14C sphingomyelin (10 μg/ml) were incubated with neutral SMase (membrane fraction isolated from mouse brains, 10 μg protein/mixture, according to Gatt, S. Biochem. Biophys. Res. Commun. 68, 235-241, 1976) or with acidic SMase (microsome fraction from macrophage 5 μg of protein/mixture isolated according to Gatt, S. Biochem. Biophys. Res. Commun. 68, 235-241, 1976) in the presence of various concentrations of the test substances, for 2 hours at 37° C. in 20 mM Tris, 1 mM MgCl2, pH 7.5 (neutral SMase) or in 50 mM sodium acetate, 1 mM MgCl2, pH 5.6 (acid SMase). Then the samples were extracted with 5 times the volume of chloroform/methanol (1:1) and the content of radioactive phosphorylcholine in the aqueous phase was determined. The release of phosphorylcholine in the untreated mixtures corresponds to 100% enzyme activity.
^14C-sphingomyelin (10 μg/ml) was incubated with neutral SMase (membrane fraction from mouse brain, 10 μg of protein/batch, isolated according to Gatt, S. Biochem. Biophys. Res. Commun. 68, 235-241, 1976) or with acid SMase (microsome fraction from macrophages 5 μg of protein per batch [isolated according to S. Gatt, Biochem. Biophys. Res. Commun. 68, 235-241, (1976)] in the presence of various concentrations of the test substances for 2 hours at 37° C. in 20 mM Tris, 1 mM MgCl2, pH 7.5 (neutral SMase) or in 50 mM sodium acetate, 1 mM MgCl2, pH 5.6 (acidic SMase). Then the samples were extracted with 5 times the volume of chloroform/methanol (1:1) and the content of radioactive phosphorylcholine in the aqueous phase was determined. The release of phosphorylcholine in the untreated batches corresponds to 100%.

[6] = tested on: endotoxin from E. coli (lethal endotoxic shock); test: Prevention of lethal endotoxic shock in the mouse by H2C11AG; assay type: in vivo, mice of the Balb C strain; settings: 100 mg/kg by oesophageal tube 2 hours before 0.7 mg endotoxin i.p., 10 animals, observed 12 days
Procedure: 10 mice of the Balb C strain (about 8 weeks old) were given 0.7 mg of endotoxin from E. coli (in 0.2 ml of isotonic saline solution) by intraperitoneal injection. 10 animals were given 100 mg/kg of H2C11AG (dissolved in twice distilled water) by oesphageal tube 2 hours before the LPS treatment. The control animals were given water.

N=C(N)NN=C1C=Cc2cccc3cccc1c23 [1-(phenalen-1-ylidene-amino)guanidine, 1-(Phenalen-1-ylidene-amino)guanidine]
IC50 (herpes virus): 45.4 µM

CCCCCCCCCCC=NNC(=N)N [C11AG, 1-(undecylideneamino)guanidine]
IC50 (herpes virus): 6.8 µM | animals died [1]: 2 | Total Symptoms ([2]; 50 mg/kg per day oral in food): 4.5 | Total Symptoms ([2]; 100 mg/kg per day oral in food): 1 | histopathology of joints (inflammatory processes) ([2]; 50 and 100 mg/kg, 20 days after booster injection): no such inflammatory processes could be detected | activity at 1 µg/mL [3]: 61% | activity at 10 µg/mL [3]: 18% | activity at 100 µg/mL [3]: 0% | OD 540 nm (nitrite content in culture medium) ([4]; 0.5 μg/ml C11AG): 0.091 | OD 540 nm (nitrite content in culture medium) ([4]; 1 μg/ml C11AG): 0.075 | OD 540 nm (nitrite content in culture medium) ([4]; 2 μg/ml C11AG): 0.054 | OD 540 nm (nitrite content in culture medium) ([4]; 3 μg/ml C11AG): 0.05 | OD 540 nm (nitrite content in culture medium) ([4]; 4 μg/ml C11AG): 0.038 | aSMase activity ([5]; 1 μg/ml): 101% | aSMase activity ([5]; 10 μg/ml): 102% | aSMase activity ([5]; 100 μg/ml): 31%

CCCCCCCCCC=NNC(=N)N [1-(decylidene-amino)guanidine]
IC50 (herpes virus): 28.9 µM

N=C(N)NN=Cc1c[nH]c2ccccc12 [1-(indol-3-ylmethylene-amino)guanidine, 1-(Indol-3-ylmethylene-amino)guanidine]
IC50 (herpes virus): 19.8 µM

CCCCCCCCCCCNNC(=N)N [H2C11AG, 1-(undecylamino) guanidine]
activity at 1 µg/mL [3]: 73% | activity at 10 µg/mL [3]: 22% | activity at 100 µg/mL [3]: 2% | aSMase activity ([5]; 1 μg/ml): 100% | aSMase activity ([5]; 10 μg/ml): 97% | aSMase activity ([5]; 100 μg/ml): 32% | survivors ([6]; control 2 survivors): 9 | survivors (%) ([6]; control 20%): 90%

N=C(N)NN=Cc1c2ccccc2cc2ccccc12 [1-(Anthracen-9-ylmethylene-amino)guanidine]
IC50 (herpes virus): 1.5 µM

CCCCCCCCC=NNC(=N)N [1-(nonylidene-amino)guanidine]
IC50 (herpes virus): 29 µM

CCCCCCCCCCCC=NNC(=N)N [1-(dodecylideneamino)guanidine]
IC50 (herpes virus): 3.2 µM

CCCCCCCC=NNC(=N)N [1-(octylidene-amino)guanidine]
IC50 (herpes virus): 49.7 µM
